{"source": "patent US7855200B2", "about": "“Method for treatment of gastric ulcers and ulcers induced by aspirin” (Council of Scientific and Industrial Research, priority 2006, dated 2010)", "key": {"[1]": {"tested_on": "acetyl salicylic acid induced gastric lesions", "assay": "Acetyl salicylic acid (aspirin) induced gastric ulcer", "assay_type": "in vivo, albino rats", "parameters": "Ulcer index Mean(SE): scale not given here", "details": "rats, aspirin 200 mg/kg", "how_it_was_run": "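Rats in groups of 6 were dosed orally once a day for five days with test compounds suspended in 1% Tween 80. A 1% Tween 80 control group and a ranitidine 50 mg/kg group were included. Aspirin at 200 mg/kg was given orally 30 min after each dose. After a 24 hour fast, the rats were killed by cervical dislocation. Stomachs were opened along the greater curvature, rinsed with lukewarm saline, examined under a dissecting microscope and scored for ulcer index.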"}, "Pylorus ligated rats": {"tested_on": "Pylorus ligated rats", "assay": "Pylorus ligated ulcers", "assay_type": "in vivo, albino rats", "details": "4 hours after pylorus ligation", "how_it_was_run": "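Albino rats, fasted 48 h, dosed with test compound (25 mg/kg, or 50, 25, 15, 10 and 5 mg/kg) or ranitidine 50 mg/kg in 1% Tween 80 vehicle. Pylorus ligated under ether 1 h post-dose. Gastric contents collected 4 h later, centrifuged, and total acid titrated with 0.01N NaOH.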"}, "[2]": {"details": "5 mg/kg per orally daily for five days"}, "[3]": {"details": "10 mg/kg per orally daily for five days"}, "[4]": {"details": "15 mg/kg per orally daily for five days"}, "[5]": {"details": "25 mg/kg per orally daily for five days"}, "[6]": {"details": "50 mg/kg per orally daily for five days"}}}
{"smiles": "COC(=O)C1OC(Oc2cc3oc(-c4ccccc4)cc(=O)c3cc2OC)C(O)C(O)C1O", "note": "(centres unmarked) [OA-5, 3,4,5-trihydroxy-6-(6-methoxy-4-oxo-2-phenyl-4-H-chromen-7-yoloxy) tetrahydro-pyran-2-carboxylicacid methyl ester]", "values": [{"measurement": "Inhibition %", "setting": "[1]; [2]", "result": 18.75, "unit": "%"}, {"measurement": "Ulcer index Mean(SE)", "setting": "[1]; [2]", "result": 36.66}, {"measurement": "Inhibition %", "setting": "[1]; [3]", "result": 40.98, "unit": "%"}, {"measurement": "Ulcer index Mean(SE)", "setting": "[1]; [3]", "result": 26.66}, {"measurement": "Inhibition %", "setting": "[1]; [4]", "result": 40.98, "unit": "%"}, {"measurement": "Ulcer index Mean(SE)", "setting": "[1]; [4]", "result": 26.66}, {"measurement": "Inhibition %", "setting": "[1]; [5]", "result": 74.55, "unit": "%"}, {"measurement": "Ulcer index Mean(SE)", "setting": "[1]; [5]", "result": 11.06}, {"measurement": "Inhibition %", "setting": "[1]; [6]", "result": 77.84, "unit": "%"}, {"measurement": "Ulcer index Mean(SE)", "setting": "[1]; [6]", "result": 10.00}, {"measurement": "Acidity Total mEg", "setting": "Pylorus ligated rats; 5 mg/kg", "result": "45.50 (±1.25) mEg"}, {"measurement": "Gastric content", "setting": "Pylorus ligated rats; 5 mg/kg", "result": "2.06 (±0.28)"}, {"measurement": "Inhibition %", "setting": "Pylorus ligated rats; 5 mg/kg", "result": 46.80, "unit": "%"}, {"measurement": "Ulcer index Mean(SE)", "setting": "Pylorus ligated rats; 5 mg/kg", "result": "26.66 (±5.48)"}, {"measurement": "pH", "setting": "Pylorus ligated rats; 5 mg/kg", "result": "3.25 (±0.17)"}, {"measurement": "Acidity Total mEg", "setting": "Pylorus ligated rats; 10 mg/kg", "result": "42.90 (±2.37) mEg"}, {"measurement": "Gastric content", "setting": "Pylorus ligated rats; 10 mg/kg", "result": "3.50 (±0.62)"}, {"measurement": "Inhibition %", "setting": "Pylorus ligated rats; 10 mg/kg", "result": 59.78, "unit": "%"}, {"measurement": "Ulcer index Mean(SE)", "setting": "Pylorus ligated rats; 10 mg/kg", "result": "21.66 (±3.04)"}, {"measurement": "pH", "setting": "Pylorus ligated rats; 10 mg/kg", "result": "3.58 (±0.24)"}, {"measurement": "Acidity Total mEg", "setting": "Pylorus ligated rats; 15 mg/kg", "result": "30.25 (±0.73) mEg"}, {"measurement": "Gastric content", "setting": "Pylorus ligated rats; 15 mg/kg", "result": "3.62 (±0.61)"}, {"measurement": "Inhibition %", "setting": "Pylorus ligated rats; 15 mg/kg", "result": 70.07, "unit": "%"}, {"measurement": "Ulcer index Mean(SE)", "setting": "Pylorus ligated rats; 15 mg/kg", "result": "15.00 (±3.33)"}, {"measurement": "pH", "setting": "Pylorus ligated rats; 15 mg/kg", "result": "4.35 (±0.10)"}, {"measurement": "Acidity Total mEg", "setting": "Pylorus ligated rats; 25 mg/kg", "result": "30.18 (±0.50) m Eg"}, {"measurement": "Gastric content", "setting": "Pylorus ligated rats; 25 mg/kg", "result": "2.10 (±0.34)"}, {"measurement": "Inhibition %", "setting": "Pylorus ligated rats; 25 mg/kg", "result": 75.07, "unit": "%"}, {"measurement": "Ulcer index Mean(SE)", "setting": "Pylorus ligated rats; 25 mg/kg", "result": "12.49 (±3.74)"}, {"measurement": "pH", "setting": "Pylorus ligated rats; 25 mg/kg", "result": "5.62 (±0.19)"}, {"measurement": "Acidity Total mEg", "setting": "Pylorus ligated rats; 50 mg/kg", "result": "32.66 (±0.62) m Eg"}, {"measurement": "Gastric content", "setting": "Pylorus ligated rats; 50 mg/kg", "result": "2.50 (±0.19)"}, {"measurement": "Inhibition %", "setting": "Pylorus ligated rats; 50 mg/kg", "result": 79.85, "unit": "%"}, {"measurement": "Ulcer index Mean(SE)", "setting": "Pylorus ligated rats; 50 mg/kg", "result": "10.10 (±2.04)"}, {"measurement": "pH", "setting": "Pylorus ligated rats; 50 mg/kg", "result": "4.62 (±0.10)"}]}
